# In article PMC12118597 (Science Advances, 2025):
# Values joined by “and” are separate entries in the source; they are usually repeats but may differ in a detail not shown here. Identical values can stand only once. Like-named read-outs stand apart in the source and are kept apart here.
# Target: SARS-CoV-2 NSP3 macrodomain (Mac1) (Severe acute respiratory syndrome coronavirus 2, UniProt P0DTD1)
# Format: binding
# Settings: for 1-BDC (PanDDA run, DMSO background map): event 1; for 2*(1-BDC) (%): occupancy estimate from PanDDA; for Total number of conformations: ligand conformations modeled in the crystal structure
# [1] = TRUE = ligand-bound crystal structure obtained (PDB code given)
# [2] = crystal soak concentration 20 mM, DMSO background map
# [3] = crystal soak concentration 20 mM, P43 crystals
# [4] = site of Mac1 occupied in the X-ray crystal structure (Adenosine or Distal)
# [5] = soak concentration 10 mM, DMSO background map
# [6] = soak concentration 10 mM, P43 crystals
# [7] = PanDDA background density correction factor
# [8] = refined crystallographic occupancy
# [9] = crystal soak 10 mM, P43 crystal form
# [10] = crystal soak 10 mM, DMSO background map
# [11] = TRUE = crystal structure with ligand obtained
# [12] = site of Mac1 occupied in the X-ray crystal structure
# [13] = crystal soak 5 mM, P43 crystal form
# [14] = crystal soak 5 mM, DMSO background map
# [15] = site of ligand in X-ray crystal structure
Compound,2*(1-BDC) (%),Occupancy difference (refined_occupancy - 2*(1-BDC)),1-BDC [7],Total number of conformations,Refined ligand occupancy (%) [8],"PanDDA run, overall: Hit [9]","PanDDA run, DMSO background map: 1-BDC [10]","PanDDA run, DMSO background map: Hit [10]",X-ray crystal structure [11],Binding site [15],"PanDDA run, overall: Modeled [9]",further results
CNc1ccc(NS(=O)(=O)c2cc3cccc(C)c3s2)cn1 [AVI-345],52%,–,–,–,–,–,–,–,–,–,–,"1-BDC (PanDDA background density correction, 1-BDC): 0.26; X-ray crystal structure [1]: TRUE; Hit (PanDDA run, DMSO background map) [2]: TRUE; Modeled (PanDDA run, DMSO background map) [2]: TRUE; 1-BDC (PanDDA run, DMSO background map) [2]: 0.26; Hit (PanDDA run, overall) [3]: TRUE; Modeled (PanDDA run, overall) [3]: TRUE; Refined ligand occupancy (%) (crystallographic refinement): 52%; Binding site [4]: Adenosine; PanDDA run, DMSO background map: 1-BDC [5]: 0.17; PanDDA run, DMSO background map: Hit [5]: TRUE; PanDDA run, overall: Hit [6]: TRUE; PanDDA run, overall: Modeling comment [6]: Duplicate, not modeled"
CC1CCN(C(=O)c2ccc3c(c2)nc(CO)n3C)CC1C(=O)O (stereo not shown) [AVI-348],50%,0,0.25,1,50%,–,–,–,–,–,–,"X-ray crystal structure [1]: TRUE; Hit (PanDDA run, DMSO background map) [2]: TRUE; 1-BDC (PanDDA run, DMSO background map) [2]: 0.34; Hit (PanDDA run, overall) [3]: TRUE; Modeling comment (PanDDA run, overall) [3]: Duplicate, not modeled; Binding site [4]: Adenosine; PanDDA run, DMSO background map: 1-BDC [5]: 0.25; PanDDA run, DMSO background map: Hit [5]: TRUE; PanDDA run, DMSO background map: Modeled [5]: TRUE; PanDDA run, overall: Hit [6]: TRUE; PanDDA run, overall: Modeled [6]: TRUE"
OC[C@@H]1C[C@H](F)CN1c1ncnc2[nH]ccc12 [AVI-609],34%,0,0.17,1,34%,TRUE,0.17,TRUE,–,–,–,X-ray crystal structure (ligand-bound crystal structure obtained (TRUE)): TRUE; Binding site (site occupied in X-ray crystal structure): Adenosine
NC(=O)C1(O)CCN(c2ncnc3[nH]ccc23)C1 (stereo not shown) [AVI-611],44%,0,0.22,2,44%,TRUE,0.22,TRUE,TRUE,–,–,Binding site [12]: Adenosine
CCC1(O)CCN(c2ncnc3[nH]ccc23)C1 (stereo not shown) [AVI-612],34%,0,0.17,1,34%,–,–,–,TRUE,–,–,"PanDDA run, overall: Hit [13]: TRUE; PanDDA run, DMSO background map: 1-BDC [14]: 0.17; PanDDA run, DMSO background map: Hit [14]: TRUE; Binding site [12]: Adenosine"
CN(C)C[C@@]1(O)CCCN(c2ncnc3[nH]ccc23)C1 [AVI-614],–,–,–,–,–,TRUE,0.17,TRUE,–,–,–,"PanDDA run, overall: Modeling comment (crystal soak 10 mM): Weak density, not modeled"
O[C@@H]1CN(c2ncnc3[nH]ccc23)C[C@H]1F [AVI-616],40%,0,0.2,1,40%,TRUE,0.2,TRUE,TRUE,–,–,Binding site [12]: Adenosine
O[C@@H]1COC[C@H]1Nc1ncnc2[nH]ccc12 [AVI-1443],–,–,–,–,–,–,–,–,–,–,–,"PanDDA run, overall: Modeling comment (crystal soak 5 mM): Weak density, not modeled; PanDDA run, overall: Hit [13]: TRUE; PanDDA run, DMSO background map: 1-BDC [14]: 0.05 and 0.04; PanDDA run, DMSO background map: Hit [14]: TRUE"
"O[C@H]1COC[C@@H]1Nc1ncnc2[nH]ccc12 [AVI-1444, (3R,4S)-4-((7H-pyrrolo[2,3-d]pyrimidin-4-yl)amino)tetrahydrofuran-3-ol]",16%,0,0.08,1,16%,TRUE,0.08 and 0.11,TRUE,TRUE,Adenosine,–,–
O=C(O)C(F)(F)F.OC1c2ccccc2CC1Nc1ncnc2[nH]ccc12 (stereo not shown) [AVI-3634],–,–,–,–,–,–,–,–,–,–,–,"PanDDA run, overall: Modeling comment (crystal soak 10 mM): TFA only"
CCC(Nc1ncnc2[nH]ccc12)C(C)O (stereo not shown) [AVI-3635],28%,0,0.14,2,28%,TRUE,0.23 and 0.14,TRUE,TRUE,Adenosine,TRUE,–
OCC(CC(F)(F)F)Nc1ncnc2[nH]ccc12 (stereo not shown) [AVI-3637],46%,0,0.23,1,46%,TRUE,0.23,TRUE,TRUE,Adenosine,–,–
OCC(Nc1ncnc2[nH]ccc12)C1CCC1 (stereo not shown) [AVI-3638],26%,0,0.13,1,26%,TRUE,0.13,TRUE,TRUE,Adenosine,TRUE,–
O=C(O)C(F)(F)F.O[C@H]1CCC[C@@H]1Nc1ncnc2[nH]ccc12 [AVI-3639],22%,0,0.11,1,22%,TRUE,0.11,TRUE,TRUE,Adenosine,TRUE,–
OCC(CC1CCC1)Nc1ncnc2[nH]ccc12 (stereo not shown) [AVI-3641],36%,0,0.18,1,36%,TRUE,0.18,TRUE,TRUE,Adenosine,TRUE,–
OCC(CC(O)c1ccccc1)Nc1ncnc2[nH]ccc12 (stereo not shown) [AVI-3642],34%,0,0.17,1,34%,TRUE,0.17,TRUE,TRUE,Adenosine,TRUE,–
